# Test results published in patent US20240059691A1 (KALVISTA PHARMACEUTICALS LIMITED, priority 2020, published 2024).
# How the values were obtained:
# Format in all cases: biochemical
# KLK1 = KLK1 (Homo sapiens (Human), UniProt P06870); experiment: Determination of related protease inhibition: KLK1 (fluorogenic substrate at Km); conditions: 25° C.
# Description: (§1) Determination of Related Protease Inhibition
# (§2) In vitro inhibition of related proteases was determined using an ([…] assay based on standard literature methods (see e.g. Shori et al., Biochem. Pharmacol., 1992, 43, 1209; Bouckaert et al., European Journal of Medicinal Chemistry 110 (2016) 181). Human serine protease enzymes Plasma Kallikrein, KLK1, FXa, Plasmin, Thrombin and Trypsin were assayed for enzymatic activity using an appropriate fluorogenic substrate at Km concentration, FXIa at fixed substrate concentration of 100 μM, and various concentrations of the test compound. Protease activity was measured by monitoring the accumulation of liberated fluorescence from the substrate over […]. The linear rate of fluorescence increase per minute was expressed as percentage (%) activity. IC50 values were calculated as the concentration of inhibitor giving 50% inhibition of the uninhibited enzyme activity (100%).
# FXa = FXa (Homo sapiens (Human), UniProt P00742); experiment: Determination of related protease inhibition: FXa (fluorogenic substrate at Km); conditions: 25° C.
# Description: as §1, §2
# Human Factor XIIa = Human Factor XIIa (Homo sapiens (Human), UniProt P00748); experiment: Determination of FXIIa inhibition (fluorogenic substrate H-DPro-Phe-Arg-AFC, IC50 assay); conditions: substrate H-DPro-Phe-Arg-AFC at Km, 25° C.; for IC50: class scale A-G
# In short: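 IC50 derived from % remaining activity, taken as the linear fluorescence rate over a 5 min read at 25° C. Substrate H-DPro-Phe-Arg-AFC was used at its Km (Michaelis-Menten) with human FXIIa and serial compound dilutions, 25° C.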
# Plasma Kallikrein = Plasma Kallikrein (Homo sapiens (Human), UniProt P03952); experiment: Determination of related protease inhibition: Plasma Kallikrein (fluorogenic substrate at Km); conditions: 25° C., read-out: IC50 (human PKal)
# In short: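 IC50 values derive from the linear rate of fluorescence increase, normalised to uninhibited enzyme as 100% activity. Each human protease was run against its fluorogenic substrate at Km concentration with varying compound levels, with product fluorescence followed over 5 min at 25 °C.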
# Chain of Human Factor XIIa (P00748 373-615): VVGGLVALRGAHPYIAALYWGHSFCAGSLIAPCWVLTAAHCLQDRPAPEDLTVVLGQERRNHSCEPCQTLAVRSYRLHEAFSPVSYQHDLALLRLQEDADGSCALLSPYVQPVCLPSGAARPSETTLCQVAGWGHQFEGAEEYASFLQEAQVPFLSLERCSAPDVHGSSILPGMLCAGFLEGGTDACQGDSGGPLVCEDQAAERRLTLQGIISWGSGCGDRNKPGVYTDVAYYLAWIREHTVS
# Chain of KLK1 (P06870 25-262): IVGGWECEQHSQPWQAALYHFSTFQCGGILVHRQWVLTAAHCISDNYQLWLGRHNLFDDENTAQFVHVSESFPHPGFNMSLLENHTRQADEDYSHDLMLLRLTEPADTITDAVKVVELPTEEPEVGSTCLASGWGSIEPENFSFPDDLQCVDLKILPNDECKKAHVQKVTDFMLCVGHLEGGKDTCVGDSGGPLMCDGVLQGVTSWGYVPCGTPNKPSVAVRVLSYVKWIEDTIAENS
# Chain of FXa (P00742 235-488): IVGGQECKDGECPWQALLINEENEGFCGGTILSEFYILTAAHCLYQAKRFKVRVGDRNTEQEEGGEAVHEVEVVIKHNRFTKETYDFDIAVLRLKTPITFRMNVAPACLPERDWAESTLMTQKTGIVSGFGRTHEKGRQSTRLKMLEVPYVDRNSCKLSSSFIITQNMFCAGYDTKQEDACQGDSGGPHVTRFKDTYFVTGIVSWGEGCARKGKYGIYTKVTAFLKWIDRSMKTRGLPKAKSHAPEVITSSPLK
# Chain of FXa (P00742 41-179 partner): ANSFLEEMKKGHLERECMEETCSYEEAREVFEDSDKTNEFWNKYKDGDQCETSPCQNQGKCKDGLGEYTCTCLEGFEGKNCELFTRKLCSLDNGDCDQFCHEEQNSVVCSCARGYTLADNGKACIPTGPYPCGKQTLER
# Chain of Plasma Kallikrein (P03952 391-638): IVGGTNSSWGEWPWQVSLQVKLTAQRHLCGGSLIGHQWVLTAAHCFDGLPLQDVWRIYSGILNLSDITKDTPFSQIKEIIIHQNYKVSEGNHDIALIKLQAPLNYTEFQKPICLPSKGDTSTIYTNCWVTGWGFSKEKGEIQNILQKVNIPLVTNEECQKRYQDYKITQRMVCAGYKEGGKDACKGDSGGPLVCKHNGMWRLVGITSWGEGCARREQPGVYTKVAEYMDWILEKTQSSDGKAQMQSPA
# Chain of Plasma Kallikrein (P03952 20-390 partner): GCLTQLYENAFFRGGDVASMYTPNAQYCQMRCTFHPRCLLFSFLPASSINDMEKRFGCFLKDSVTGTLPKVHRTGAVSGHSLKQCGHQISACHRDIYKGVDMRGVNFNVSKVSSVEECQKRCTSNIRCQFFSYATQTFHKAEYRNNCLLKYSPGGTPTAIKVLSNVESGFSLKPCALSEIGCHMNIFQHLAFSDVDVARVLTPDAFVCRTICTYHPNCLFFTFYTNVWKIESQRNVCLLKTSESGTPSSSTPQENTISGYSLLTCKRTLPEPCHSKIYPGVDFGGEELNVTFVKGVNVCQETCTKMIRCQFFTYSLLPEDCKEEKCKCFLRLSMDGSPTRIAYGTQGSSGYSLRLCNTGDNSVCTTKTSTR
Structure (SMILES),IC50 (KLK1) [µM],IC50 (FXa) [µM],IC50 (Human Factor XIIa) [µM],IC50 (Plasma Kallikrein) [µM],Human FXIIa IC50 (nM): test compounds that did not achieve 50% inhibition (Human Factor XIIa; class scale H1-H3 for compounds that did not achieve 50% inhibition)
"Nc1nccc2c(N3CCCC3c3ccc(N4CCn5c(nnc5C(F)(F)F)C4)nc3)cccc12 (racemic) [Example 10002, 5-(2-(6-(3-(Trifluoromethyl)-5,6-dihydro-[1,2,4]triazolo[4,3-a]pyrazin-7(8H)-yl)pyridin-3-yl)pyrrolidin-1-yl)isoquinolin-1-amine]",10 to 40,> 40,1 to 3,,
"CC1c2nnc(C(F)(F)F)n2CCN1c1ccc(CNc2cccc3c(N)nccc23)cn1 (single isomer, unassigned) [Example 1294, (R*)-N5-((6-(8-methyl-3-(trifluoromethyl)-5,6-dihydro-[1,2,4]triazolo[4,3-a]pyrazin-7(8H)-yl)pyridin-3-yl)methyl)isoquinoline-1,5-diamine]",3 to 10,> 40,10 to 40,> 40,
"CC1c2nnc(C(F)(F)F)n2CCN1c1ccc(CNc2cccc3c(N)nccc23)cn1 (single isomer, unassigned) [Example 1295, (S*)-N5-((6-(8-methyl-3-(trifluoromethyl)-5,6-dihydro-[1,2,4]triazolo[4,3-a]pyrazin-7(8H)-yl)pyridin-3-yl)methyl)isoquinoline-1,5-diamine]",3 to 10,> 40,0.01 to 0.1,10 to 40,
"CC1CN(c2ccc(CNc3cccc4c(N)nccc34)cn2)Cc2nnc(C(F)(F)F)n21 (single isomer, unassigned) [Example 1296, (R*)-N5-((6-(5-methyl-3-(trifluoromethyl)-5,6-dihydro-[1,2,4]triazolo[4,3-a]pyrazin-7(8H)-yl)468yridine-3-yl)methyl)isoquinoline-1,5-diamine]",3 to 10,> 40,1 to 3,10 to 40,
"CC1CN(c2ccc(CNc3cccc4c(N)nccc34)cn2)Cc2nnc(C(F)(F)F)n21 (single isomer, unassigned) [Example 1297, (S*)-N5-((6-(5-methyl-3-(trifluoromethyl)-5,6-dihydro-[1,2,4]triazolo[4,3-a]pyrazin-7(8H)-yl)pyridin-3-yl)methyl)isoquinoline-1,5-diamine]",1 to 3,> 40,1 to 3,> 40,
"Nc1nccc2c(N3CCCC3c3ccc(N4CCn5c(nnc5C(F)(F)F)C4)nc3)cccc12 (single isomer, unassigned) [Example 10003, (S*)-5-(2-(6-(3-(trifluoromethyl)-5,6-dihydro-[1,2,4]triazolo[4,3-a]pyrazin-7(8H)-yl)pyridin-3-yl)pyrrolidin-1-yl)isoquinolin-1-amine]",> 40,> 40,3 to 10,,
"Nc1nccc2c(N3CCCC3c3ccc(N4CCn5c(nnc5C(F)(F)F)C4)nc3)cccc12 (single isomer, unassigned) [Example 10004, (R*)-5-(2-(6-(3-(trifluoromethyl)-5,6-dihydro-[1,2,4]triazolo[4,3-a]pyrazin-7(8H)-yl)pyridin-3-yl)pyrrolidin-1-yl)isoquinolin-1-amine]",10 to 40,> 40,0.3 to 1,,
"Cc1nc(N2CCn3c(nnc3C(F)(F)F)C2)ccc1CNc1cccc2c(N)nccc12 [Example 1284, N5-((2-methyl-6-(3-(trifluoromethyl)-5,6-dihydro-[1,2,4]triazolo[4,3-a]pyrazin-7(8H)-yl)pyridin-3-yl)methyl)isoquinoline-1,5-diamine]",3 to 10,> 40,0.3 to 1,,
"CC1c2nnc(C(F)(F)F)n2CCN1c1ccc(CNc2cccc3c(N)nccc23)cn1 (stereo not shown) [Example 1285, N5-((6-(8-methyl-3-(trifluoromethyl)-5,6-dihydro-[1,2,4]triazolo[4,3-a]pyrazin-7(8H)-yl)pyridin-3-yl)methyl)isoquinoline-1,5-diamine]",3 to 10,> 40,0.3 to 1,,
"Cn1ncc2c1CCN(c1ccc(CNc3cccc4c(N)nccc34)cn1)C2 [Example 1286, N5-((6-(1-methyl-1,4,6,7-tetrahydro-5H-pyrazolo[4,3-c]pyridin-5-yl)pyridin-3-yl)methyl)isoquinoline-1,5-diamine]",1 to 3,> 40,0.3 to 1,,
"CC1CN(c2ccc(CNc3cccc4c(N)nccc34)cn2)Cc2nnc(C(F)(F)F)n21 (stereo not shown) [Example 1287, N5-((6-(5-methyl-3-(trifluoromethyl)-5,6-dihydro-[1,2,4]triazolo[4,3-a]pyrazin-7(8H)-yl)pyridin-3-yl)methyl)isoquinoline-1,5-diamine]",1 to 3,> 40,1 to 3,,
"FC(F)(F)c1nnc2n1CCN(c1ccc(CNc3ccn4ccnc4c3)cn1)C2 [Example 1288, N-((6-(3-(trifluoromethyl)-5,6-dihydro-[1,2,4]triazolo[4,3-a]pyrazin-7(8H)-yl)pyridin-3-yl)methyl)imidazo[1,2-a]pyridin-7-amine]",> 100,> 40,,,
"FC(F)(F)c1nnc2n1CCN(c1ccc(CNc3cnc4[nH]cc(Cl)c4c3)cn1)C2 [Example 1289, 3-chloro-N-((6-(3-(trifluoromethyl)-5,6-dihydro-[1,2,4]triazolo[4,3-a]pyrazin-7(8H)-yl)pyridin-3-yl)methyl)-1H-pyrrolo[2,3-b]pyridin-5-amine]",> 40,> 40,,,
"CC(C)Oc1cc(NCc2ccc(N3CCn4c(nnc4C(F)(F)F)C3)nc2)ccn1 [Example 1290, 2-isopropoxy-N-((6-(3-(trifluoromethyl)-5,6-dihydro-[1,2,4]triazolo[4,3-a]pyrazin-7(8H)-yl)pyridin-3-yl)methyl)pyridin-4-amine]",> 40,> 40,,,
"CC(C)(O)c1cn(-c2ccc(CNc3cccc4c(N)nccc34)cn2)nn1 [Example 1291, 2-(1-(5-(((1-aminoisoquinolin-5-yl)amino)methyl)pyridin-2-yl)-1H-1,2,3-triazol-4-yl)propan-2-ol]",10 to 40,> 40,3 to 10,,
N#Cc1cc(NCc2ccc(N3CCn4c(nnc4C(F)(F)F)C3)nc2)c2cc(Cl)[nH]c2n1 [Example 1292],> 40,> 40,,,H1 (>20% inhibition @ 40 μM)
"Cc1cc(NCc2ccc(N3CCn4c(nnc4C(F)(F)F)C3)nc2)c2cc(Cl)[nH]c2n1 [Example 1293, 2-chloro-6-methyl-N-((6-(3-(trifluoromethyl)-5,6-dihydro-[1,2,4]triazolo[4,3-a]pyrazin-7(8H)-yl)pyridin-3-yl)methyl)-1H-pyrrolo[2,3-b]pyridin-4-amine]",> 40,> 40,,,
"Nc1nccc2c(NCc3ccc(N4CCn5c(nnc5C(F)(F)F)C4)nc3C(F)(F)F)cccc12 [Example 1298, N5-((2-(trifluoromethyl)-6-(3-(trifluoromethyl)-5,6-dihydro-[1,2,4]triazolo[4,3-a]pyrazin-7(8H)-yl)pyridin-3-yl)methyl)isoquinoline-1,5-diamine]",10 to 40,> 40,1 to 3,> 40,
"Nc1nccc2c(NCc3cnc(N4CCn5c(nnc5C(F)(F)F)C4)cc3Cl)cccc12 [Example 1299, N5-((4-Chloro-6-(3-(trifluoromethyl)-5,6-dihydro-[1,2,4]triazolo[4,3-a]pyrazin-7(8H)-yl)pyridin-3-yl)methyl)isoquinoline-1,5-diamine]",3 to 10,> 40,0.01 to 0.1,> 40,
"Nc1nccc2c(NCc3ccc(N4CCn5c(nnc5C(F)(F)F)C4)cc3)cccc12 [Example 1300, N5-(4-(3-(trifluoromethyl)-5,6-dihydro-[1,2,4]triazolo[4,3-a]pyrazin-7(8H)-yl)benzyl)isoquinoline-1,5-diamine]",3 to 10,> 40,0.1 to 0.3,> 40,
"Nc1nccc2c(NCc3cnc(N4CCn5c(nnc5C(F)(F)F)C4)cc3C(F)(F)F)cccc12 [Example 1301, N5-((4-(trifluoromethyl)-6-(3-(trifluoromethyl)-5,6-dihydro-[1,2,4]triazolo[4,3-a]pyrazin-7(8H)-yl)pyridin-3-yl)methyl)isoquinoline-1,5-diamine]",3 to 10,> 40,0.1 to 0.3,> 40,
"Cc1cc(CNc2cccc3c(N)nccc23)cnc1N1CCn2c(nnc2C(F)(F)F)C1 [Example 1302, N5-((5-methyl-6-(3-(trifluoromethyl)-5,6-dihydro-[1,2,4]triazolo[4,3-a]pyrazin-7(8H)-yl)pyridin-3-yl)methyl)isoquinoline-1,5-diamine]",1 to 3,> 40,10 to 40,10 to 40,
"Cc1cc(N2CCn3c(nnc3C(F)(F)F)C2)cnc1CNc1cccc2c(N)nccc12 [Example 9005, N5-((3-Methyl-5-(3-(trifluoromethyl)-5,6-dihydro-[1,2,4]triazolo[4,3-a]pyrazin-7(8H)-yl)pyridin-2-yl)methyl)isoquinoline-1,5-diamine]",> 4,,0.01 to 0.1,,
